From US11524096B2, “Wetting agent formulation” (TELEFLEX LIFE SCIENCES PTE. LTD., priority 2016, dated 2022)

How the values were obtained:
[1] = without propylene glycol; cited from earlier work
[2] = Relative dissolution of propyl gallate depending on sequence of mixing steps; type: physicochemical
Source text: In the case where glycerol is employed, it may be necessary to add some heat to the solution in order to achieve full dissolution of the propyl gallate. Further, the sequence of the mixing steps and its effect on the relative dissolution of propyl gallate when all component concentrations and temperature are kept constant, is as follows: • Addition of propylene glycol to propyl gallate, then addition of saline or distilled water: fast reaction (high rate of dissolution of propyl gallate); • Addition of saline/distilled water to propyl gallate, then addition of propylene glycol: slow reaction (low rate of dissolution of propyl gallate); • Addition of propylene glycol to saline/distilled water, then addition of propyl gallate: fast reaction (high rate of dissolution of propyl gallate); • Employing glycerol instead of propylene glycol: slow reaction (low rate of dissolution of propyl gallate).

SMILES: CCCOC(=O)c1cc(O)c(O)c(O)c1 [PG, propyl 3,4,5-trihydroxybenzoate]
- solubility in water (in words) [1]: only slightly soluble
- rate of dissolution of propyl gallate ([2]; Addition of propylene glycol to propyl gallate, then addition of saline or distilled water, concentrations and temperature constant): fast reaction
- rate of dissolution of propyl gallate ([2]; Addition of propylene glycol to saline/distilled water, then addition of propyl gallate): fast reaction
- rate of dissolution of propyl gallate ([2]; Addition of saline/distilled water to propyl gallate, then addition of propylene glycol): slow reaction
- rate of dissolution of propyl gallate ([2]; Employing glycerol instead of propylene glycol): slow reaction
